Measurements taken from PubChem BioAssay (NCI).
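How tested: cells in 96-well plates exposed to compound for 48 hours at five concentrations. The concentration for 50% growth inhibition is given as GI50. TGI marks complete inhibition of growth.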

Tests used:
Assay in all cases: NCI anticancer screen, dose series, 48 h
U251 CNS = tested on: U251 CNS
ACHN renal = tested on: ACHN renal
HS 578T breast = tested on: HS 578T breast
SK-MEL-2 melanoma = tested on: SK-MEL-2 melanoma
HOP-62 NSCLC = tested on: HOP-62 NSCLC
RXF 393 renal = tested on: RXF 393 renal
SF-295 CNS = tested on: SF-295 CNS
IGROV1 ovarian = tested on: IGROV1 ovarian
HL-60(TB) leukemia = tested on: HL-60(TB) leukemia
MDA-MB-231 breast = tested on: MDA-MB-231 breast
OVCAR-5 ovarian = tested on: OVCAR-5 ovarian
NCI-H23 lung = tested on: NCI-H23 lung
CCRF-CEM leukemia = tested on: CCRF-CEM leukemia
BT-549 breast = tested on: BT-549 breast
NCI/ADR-RES ovarian = tested on: NCI/ADR-RES ovarian
MALME-3M melanoma = tested on: MALME-3M melanoma
M14 melanoma = tested on: M14 melanoma
COLO 205 colon = tested on: COLO 205 colon
T-47D breast = tested on: T-47D breast
HCC-2998 colon = tested on: HCC-2998 colon
DU-145 prostate = tested on: DU-145 prostate
MCF7 breast = tested on: MCF7 breast
HCT-116 colon = tested on: HCT-116 colon
OVCAR-3 ovarian = tested on: OVCAR-3 ovarian
SW-620 colon = tested on: SW-620 colon
786-0 renal = tested on: 786-0 renal
K-562 leukemia = tested on: K-562 leukemia
MDA-MB-435 = tested on: MDA-MB-435
SR leukemia = tested on: SR leukemia
EKVX NSCLC = tested on: EKVX NSCLC
SK-MEL-5 melanoma = tested on: SK-MEL-5 melanoma
TK-10 renal = tested on: TK-10 renal
SK-OV-3 ovarian = tested on: SK-OV-3 ovarian
OVCAR-4 ovarian = tested on: OVCAR-4 ovarian
NCI-H460 lung = tested on: NCI-H460 lung
UACC-257 melanoma = tested on: UACC-257 melanoma
A498 renal = tested on: A498 renal
PC-3 prostate = tested on: PC-3 prostate
SF-539 CNS = tested on: SF-539 CNS
SN12C renal = tested on: SN12C renal
MOLT-4 leukemia = tested on: MOLT-4 leukemia
HOP-92 NSCLC = tested on: HOP-92 NSCLC
CAKI-1 renal = tested on: CAKI-1 renal
NCI-H522 lung = tested on: NCI-H522 lung
KM12 colon = tested on: KM12 colon
A549 NSCLC = tested on: A549 NSCLC
HT29 colon = tested on: HT29 colon
UACC-62 melanoma = tested on: UACC-62 melanoma
SK-MEL-28 melanoma = tested on: SK-MEL-28 melanoma
SNB-75 CNS = tested on: SNB-75 CNS
RPMI-8226 leukemia = tested on: RPMI-8226 leukemia
LOX IMVI melanoma = tested on: LOX IMVI melanoma
HCT-15 colon = tested on: HCT-15 colon
UO-31 renal = tested on: UO-31 renal
SNB-19 CNS = tested on: SNB-19 CNS
SF-268 CNS = tested on: SF-268 CNS
OVCAR-8 ovarian = tested on: OVCAR-8 ovarian
NCI-H226 lung = tested on: NCI-H226 lung

Cc1cc(Nc2nc(N[C@@H](C)c3ncc(F)cn3)ncc2Cl)n[nH]1
GI50 (U251 CNS): 24.5 µM
TGI (U251 CNS): > 100 µM
GI50 (ACHN renal): 20.4 µM
TGI (ACHN renal): > 100 µM
GI50 (HS 578T breast): 15.9 µM
TGI (HS 578T breast): > 71.8 µM
GI50 (SK-MEL-2 melanoma): 28.7 µM
TGI (SK-MEL-2 melanoma): 92.1 µM
GI50 (HOP-62 NSCLC): 20 µM
TGI (HOP-62 NSCLC): > 100 µM
GI50 (RXF 393 renal): 5.07 µM
TGI (RXF 393 renal): 19.9 µM
GI50 (SF-295 CNS): 35.6 µM
TGI (SF-295 CNS): > 100 µM
GI50 (IGROV1 ovarian): 26.1 µM
TGI (IGROV1 ovarian): > 100 µM
GI50 (HL-60(TB) leukemia): 29.9 µM
TGI (HL-60(TB) leukemia): > 100 µM
GI50 (MDA-MB-231 breast): 30.6 µM
TGI (MDA-MB-231 breast): > 100 µM
GI50 (OVCAR-5 ovarian): 38.4 µM
TGI (OVCAR-5 ovarian): > 100 µM
GI50 (NCI-H23 lung): 23.1 µM
TGI (NCI-H23 lung): > 100 µM
GI50 (CCRF-CEM leukemia): 55.7 µM
TGI (CCRF-CEM leukemia): > 100 µM
GI50 (BT-549 breast): 9.81 µM
TGI (BT-549 breast): > 100 µM
GI50 (NCI/ADR-RES ovarian): 32 µM
TGI (NCI/ADR-RES ovarian): > 100 µM
GI50 (MALME-3M melanoma): 47.1 µM
TGI (MALME-3M melanoma): > 100 µM
GI50 (M14 melanoma): 20.7 µM
TGI (M14 melanoma): > 100 µM
GI50 (COLO 205 colon): 17.8 µM
TGI (COLO 205 colon): 48.9 µM
GI50 (T-47D breast): 22.8 µM
TGI (T-47D breast): > 100 µM
GI50 (HCC-2998 colon): 38.7 µM
TGI (HCC-2998 colon): > 100 µM
GI50 (DU-145 prostate): 40.8 µM
TGI (DU-145 prostate): > 100 µM
GI50 (MCF7 breast): 8.71 µM
TGI (MCF7 breast): > 100 µM
GI50 (HCT-116 colon): 13.3 µM
TGI (HCT-116 colon): > 100 µM
GI50 (OVCAR-3 ovarian): 59.1 µM
TGI (OVCAR-3 ovarian): > 100 µM
GI50 (SW-620 colon): 22.6 µM
TGI (SW-620 colon): > 100 µM
GI50 (786-0 renal): 23.6 µM
TGI (786-0 renal): > 100 µM
GI50 (K-562 leukemia): 32.2 µM
TGI (K-562 leukemia): > 100 µM
GI50 (MDA-MB-435): 28.1 µM
TGI (MDA-MB-435): > 100 µM
GI50 (SR leukemia): 4.15 µM
TGI (SR leukemia): > 100 µM
GI50 (EKVX NSCLC): 56.8 µM
TGI (EKVX NSCLC): > 100 µM
GI50 (SK-MEL-5 melanoma): 26 µM
TGI (SK-MEL-5 melanoma): > 100 µM
GI50 (TK-10 renal): 30 µM
TGI (TK-10 renal): > 100 µM
GI50 (SK-OV-3 ovarian): 22.6 µM
TGI (SK-OV-3 ovarian): > 100 µM
GI50 (OVCAR-4 ovarian): 23.2 µM
TGI (OVCAR-4 ovarian): > 100 µM
GI50 (NCI-H460 lung): 22.2 µM
TGI (NCI-H460 lung): > 100 µM
GI50 (UACC-257 melanoma): 33.2 µM
TGI (UACC-257 melanoma): > 100 µM
GI50 (A498 renal): 1.85 µM
TGI (A498 renal): 13.1 µM
GI50 (PC-3 prostate): 43.7 µM
TGI (PC-3 prostate): > 100 µM
GI50 (SF-539 CNS): 14.9 µM
TGI (SF-539 CNS): 58 µM
GI50 (SN12C renal): 20.4 µM
TGI (SN12C renal): > 100 µM
GI50 (MOLT-4 leukemia): 60.7 µM
TGI (MOLT-4 leukemia): > 100 µM
GI50 (HOP-92 NSCLC): 10.1 µM
TGI (HOP-92 NSCLC): 42.4 µM
GI50 (CAKI-1 renal): 17.5 µM
TGI (CAKI-1 renal): > 100 µM
GI50 (NCI-H522 lung): 21.1 µM
TGI (NCI-H522 lung): > 100 µM
GI50 (KM12 colon): 0.369 µM
TGI (KM12 colon): > 64.1 µM
GI50 (A549 NSCLC): 29.5 µM
TGI (A549 NSCLC): > 100 µM
GI50 (HT29 colon): 27.8 µM
TGI (HT29 colon): > 100 µM
GI50 (UACC-62 melanoma): 11.7 µM
TGI (UACC-62 melanoma): 88 µM
GI50 (SK-MEL-28 melanoma): 38.1 µM
TGI (SK-MEL-28 melanoma): > 100 µM
GI50 (SNB-75 CNS): 8.85 µM
TGI (SNB-75 CNS): 36.4 µM
GI50 (RPMI-8226 leukemia): > 62 µM
TGI (RPMI-8226 leukemia): > 100 µM
GI50 (LOX IMVI melanoma): 13.8 µM
TGI (LOX IMVI melanoma): > 100 µM
GI50 (HCT-15 colon): 24.9 µM
TGI (HCT-15 colon): > 100 µM
GI50 (UO-31 renal): 24.6 µM
TGI (UO-31 renal): > 100 µM
GI50 (SNB-19 CNS): 51.7 µM
TGI (SNB-19 CNS): > 100 µM
GI50 (SF-268 CNS): 18.2 µM
TGI (SF-268 CNS): > 82.4 µM
GI50 (OVCAR-8 ovarian): 30.5 µM
TGI (OVCAR-8 ovarian): > 100 µM
GI50 (NCI-H226 lung): 1.14 µM
TGI (NCI-H226 lung): 54.8 µM
